From patent US20090247559A1 (Exelixis, Inc., priority 2007, published 2009) come the findings set out here.

Broadly, the IC50 is the concentration at which inhibition is half-maximal.

This experiment concerns the target PIM (PIM-1, PIM-2, and/or PIM-3). Description: PIM-1, PIM-2 and PIM-3 inhibition, biochemical chemiluminescence assays (Kinase Glo, IC50 determination). As to conditions: Table 1 activity class; PIM refers to PIM-1, PIM-2, and/or PIM-3; read-out: PIM IC50 (Activity B). As for the experimental part: (§1) The IC50 evaluation of compounds against the PIM-1 oncogene was performed in a Chemiluminesence assay utilizing a Greiner 384-well white medium binding white plate format. […] Following an incubation period of 120 minutes at ambient temperature (24-27° C.), 10 μL of Kinase Glo (Promega) was added. The luminescence was measured following a Luminescence Protocol on a Victor plate reader.
as §1, with “PIM-2” for “PIM-1”, “format. […] The assay procedure involves compound dilution followed by addition of 3 nM PIM-2 to the designated well plates and subsequent pre-incubation of the compounds with the enzyme for 30 minutes at ambient temperature (24-27° C.).” for “format.”
The IC50 evaluation of compounds against the PIM-3 Oncogene was performed in a Chemiluminesence assay utilizing a Greiner 384-well white medium binding white plate format. […] Following an incubation period of 120 minutes at ambient temperature (24-27° C.), 10 μL of Kinase Glo (Promega) was added. The luminescence was measured following a Luminescence Protocol on a Victor plate reader.
(In general: Kinase-Glo measures the ATP left after a reaction by luminescence.)
For the molecule `O=C(Nc1ccc(Cl)c(-c2nc3c(oc4ccc(Br)cc43)c(=O)[nH]2)c1)c1cccnc1` [Compound 327, N-[3-(8-bromo-4-oxo-3,4-dihydro[1]benzofuro[3,2-d]pyrimidin-2-yl)-4-chlorophenyl]pyridine-3-carboxamide], the IC50 is less than 10 µM.

Regarding `Cc1cc(NCC2CCOC2)ccc1-c1nc2c(oc3ccc(Br)cc32)c(=O)[nH]1` (stereo not shown) [Compound 61, 8-bromo-2-{2-methyl-4-[(tetrahydrofuran-3-ylmethyl)amino]phenyl}[1]benzofuro[3,2-d]pyrimidin-4(3H)-one], the IC50 was less than 10 µM.

As to `CN1CCN(c2ccc(CNc3nc4c(oc5ccc(Br)cc54)c(=O)[nH]3)cc2)CC1` [Compound 225, 8-bromo-2-({[4-(4-methylpiperazin-1-yl)phenyl]methyl}amino)[1]benzofuro[3,2-d]pyrimidin-4(3H)-one], the IC50 was less than 10 µM.

As for `O=c1[nH]c(-c2ccc(Br)cc2)nc2c1oc1ccc(Br)cc12` [Compound 95, 8-Bromo-2-(4-bromophenyl)[1]benzofuro[3,2-d]pyrimidin-4(3H)-one], the IC50 was less than 10 µM.

Regarding `O=c1[nH]c(CN2CC[C@H](O)C2)nc2c1oc1ccc(NC3CCCCC3)cc12` [Compound 449, 8-(cyclohexylamino)-2-{[(3S)-3-hydroxypyrrolidin-1-yl]methyl}[1]benzofuro[3,2-d]pyrimidin-4(3H)-one], the IC50 was less than 10 µM.

On to `O=c1[nH]c(-c2ccc(Cl)cc2)nc2c1oc1ccc(Br)cc12` [Compound 94, 8-Bromo-2-(4-chlorophenyl)[1]benzofuro[3,2-d]pyrimidin-4(3H)-one], for which the 50% inhibitory concentration (IC50) was less than 10 µM.

Regarding `COC(=O)c1ccc(-c2nc3c(oc4ccccc43)c(=O)[nH]2)cc1` [Compound 53, methyl 4-(4-oxo-3,4-dihydro[1]benzofuro[3,2-d]pyrimidin-2-yl)benzoate], the IC50 is less than 10 µM.

With `O=c1[nH]c(CN2CCN(c3cccc(Cl)c3)CC2)nc2c1oc1ccc(Br)cc12` [Compound 278, 8-bromo-2-{[4-(3-chlorophenyl)piperazin-1-yl]methyl}[1]benzofuro[3,2-d]pyrimidin-4(3H)-one], the IC50 is less than 10 µM.

With `CN(C)CCCNC(=O)[C@@H]1CCCN1Cc1nc2c(oc3ccc(Br)cc32)c(=O)[nH]1` [Compound 20, 1-[(8-bromo-4-oxo-3,4-dihydro[1]benzofuro[3,2-d]pyrimidin-2-yl)methyl]-N-[3-(dimethylamino)propyl]prolinamide], the half-inhibitory concentration (IC50) was less than 10 µM.

Take `CN1CCN(Cc2nc3c(oc4ccc(C#CCO)cc43)c(=O)[nH]2)CC1` [Compound 450, 8-(3-hydroxyprop-1-yn-1-yl)-2-[(4-methylpiperazin-1-yl)methyl][1]benzofuro[3,2-d]pyrimidin-4(3H)-one]: the IC50 is less than 10 µM.

Take `O=C(COc1cccc(-c2nc3c(oc4ccc(Br)cc43)c(=O)[nH]2)c1)NCC1CC1` [Compound 98, 2-{[3-(8-bromo-4-oxo-3,4-dihydro[1]benzofuro[3,2-d]pyrimidin-2-yl)phenyl]oxy}-N-(cyclopropylmethyl)acetamide]: the IC50 is less than 10 µM.

Regarding `CN1CCN(Cc2nc3c(oc4ccc(F)cc43)c(=O)[nH]2)CC1` [Compound 367, 8-Fluoro-2-[(4-methylpiperazin-1-yl)methyl][1]benzofuro[3,2-d]pyrimidin-4(3H)-one], the half-inhibitory concentration (IC50) is less than 10 µM.

As for `Nc1ccc(-c2nc3c(oc4ccccc43)c(=O)[nH]2)c(Cl)c1` [Compound 399, 2-(4-amino-2-chlorophenyl)[1]benzofuro[3,2-d]pyrimidin-4(3H)-one], the IC50 is less than 10 µM.

With `CN(C)c1cccc(NCc2nc3c(oc4ccc(Br)cc43)c(=O)[nH]2)c1` [Compound 76, 8-bromo-2-({[3-(dimethylamino)phenyl]amino}methyl)[1]benzofuro[3,2-d]pyrimidin-4(3H)-one], the IC50 was less than 10 µM.

Turning to `CN1CCC(N2CCN(Cc3nc4c(oc5ccc(Br)cc54)c(=O)[nH]3)CC2)CC1` [Compound 84, 8-bromo-2-{[4-(1-methylpiperidin-4-yl)piperazin-1-yl]methyl}[1]benzofuro[3,2-d]pyrimidin-4(3H)-one], the IC50 is less than 10 µM.

Consider `CN1CCN(Cc2nc3c(nc4ccc(Br)cn43)c(=O)[nH]2)CC1` [Compound 417, 8-bromo-2-[(4-methylpiperazin-1-yl)methyl]pyrido[1,2-e]purin-4(3H)-one], for which the IC50 is less than 10 µM.

Regarding `CC(C)COc1cnccc1-c1nc2c(oc3ccc(Br)cc32)c(=O)[nH]1` [Compound 219, 8-bromo-2-{3-[(2-methylpropyl)oxy]pyridin-4-yl}[1]benzofuro[3,2-d]pyrimidin-4(3H)-one], the IC50 was less than 10 µM.

Turning to `O=c1[nH]c(CN2CC[C@H](O)C2)nc2c1nc1ccc(Br)cn12` [Compound 418, 8-bromo-2-{[(3S)-3-hydroxypyrrolidin-1-yl]methyl}pyrido[1,2-e]purin-4(3H)-one], the IC50 was less than 10 µM.

As for `CN(C)CCNCc1nc2c(oc3ccc(Br)cc32)c(=O)[nH]1` [Compound 200, 8-bromo-2-({[2-(dimethylamino)ethyl]amino}methyl)[1]benzofuro[3,2-d]pyrimidin-4(3H)-one], the concentration for half-maximal inhibition (IC50) was less than 10 µM.

Consider `CN1CCN(C(c2nc3c(oc4ccc(Br)cc43)c(=O)[nH]2)c2ccccc2Cl)CC1` (stereo not shown) [Compound 156, 8-Bromo-2-[(2-chlorophenyl)(4-methylpiperazin-1-yl)methyl][1]benzofuro[3,2-d]pyrimidin-4(3H)-one], for which the IC50 is less than 10 µM.

In the case of `O=c1[nH]c(-c2cn3c(n2)CNCC3)nc2c1oc1ccc(Br)cc12` [Compound 301, 8-Bromo-2-(5,6,7,8-tetrahydroimidazo[1,2-a]pyrazin-2-yl)[1]benzofuro[3,2-d]pyrimidin-4(3H)-one], the IC50 was less than 10 µM.

For `O=c1[nH]c(CNc2ccc(F)cc2)nc2c1oc1ccc(Br)cc12` [Compound 22, 8-bromo-2-{[(4-fluorophenyl)amino]methyl}[1]benzofuro[3,2-d]pyrimidin-4(3H)-one], the IC50 is less than 10 µM.

Turning to `O=C(Nc1ccc(Cl)c(-c2nc3c(oc4ccc(Br)cc43)c(=O)[nH]2)c1)c1ccc(Br)cn1` [Compound 338, 5-bromo-N-[3-(8-bromo-4-oxo-3,4-dihydro[1]benzofuro[3,2-d]pyrimidin-2-yl)-4-chlorophenyl]pyridine-2-carboxamide], the IC50 is less than 10 µM.

In the case of `CN1CCN(C(=O)c2nc3c(oc4ccc(Br)cc43)c(=O)[nH]2)CC1` [Compound 106, 8-Bromo-2-[(4-methylpiperazin-1-yl)carbonyl][1]benzofuro[3,2-d]pyrimidin-4(3H)-one], the IC50 was less than 10 µM.

With `O=c1[nH]c(CNC2CCNCC2)nc2c1oc1ccc(Br)cc12` [Compound 8, 8-bromo-2-[(piperidin-4-ylamino)methyl][1]benzofuro[3,2-d]pyrimidin-4(3H)-one], the IC50 was less than 10 µM.

Take `CN1CCN(C(c2ccccc2)c2nc3c(oc4ccc(Br)cc43)c(=O)[nH]2)CC1` (stereo not shown) [Compound 188, 8-bromo-2-[(4-methylpiperazin-1-yl)(phenyl)methyl][1]benzofuro[3,2-d]pyrimidin-4(3H)-one]: the IC50 was less than 10 µM.

Turning to `O=c1[nH]c(C(c2ccccc2)N2CCNCC2)nc2c1oc1ccc(Br)cc12` (stereo not shown) [Compound 384, 8-bromo-2-[phenyl(piperazin-1-yl)methyl][1]benzofuro[3,2-d]pyrimidin-4(3H)-one], the IC50 is less than 10 µM.

`O=c1[nH]c(-c2ccc3nc[nH]c3c2)nc2c1oc1ccc(Br)cc12` [Compound 423, 2-(1H-benzimidazol-6-yl)-8-bromo[1]benzofuro[3,2-d]pyrimidin-4(3H)-one]: the IC50 is less than 10 µM.

`C[C@@H]1CN(Cc2nc3c(oc4ccc(Br)cc43)c(=O)[nH]2)C[C@H](C)N1C` [Compound 316, 8-bromo-2-{[(3R,5S)-3,4,5-trimethylpiperazin-1-yl]methyl}[1]benzofuro[3,2-d]pyrimidin-4(3H)-one]: the concentration for half-maximal inhibition (IC50) was less than 10 µM.

With `CN1CCN(C(Cc2ccccc2)c2nc3c(oc4ccc(Br)cc43)c(=O)[nH]2)CC1` (stereo not shown) [Compound 215, 8-bromo-2-[1-(4-methylpiperazin-1-yl)-2-phenylethyl][1]benzofuro[3,2-d]pyrimidin-4(3H)-one], the IC50 was less than 10 µM.

Turning to `CCN(CC)CC(=O)N1CCN(Cc2nc3c(oc4ccc(Br)cc43)c(=O)[nH]2)CC1` [Compound 26, 8-bromo-2-{[4-(N,N-diethylglycyl)piperazin-1-yl]methyl}[1]benzofuro[3,2-d]pyrimidin-4(3H)-one], the IC50 is less than 10 µM.

As to `CN(C)CCN1CCN(Cc2nc3c(oc4ccc(Br)cc43)c(=O)[nH]2)CC1` [Compound 81, 8-bromo-2-({4-[2-(dimethylamino)ethyl]piperazin-1-yl}methyl)[1]benzofuro[3,2-d]pyrimidin-4(3H)-one], the IC50 was less than 10 µM.

Turning to `C[C@@H]1CN(Cc2nc3c(oc4ccc(Br)cc43)c(=O)[nH]2)C[C@H](C)N1` [Compound 296, 8-bromo-2-{[(3R,5S)-3,5-dimethylpiperazin-1-yl]methyl}[1]benzofuro[3,2-d]pyrimidin-4(3H)-one], the IC50 is less than 10 µM.

With `NC1C[C@H]2CC[C@@H](C1)N2Cc1nc2c(oc3ccc(Br)cc32)c(=O)[nH]1` (stereo partly drawn) [Compound 131, 2-{[(1R,5S)-3-Amino-8-azabicyclo[3.2.1]oct-8-yl]methyl}-8-bromo[1]benzofuro[3,2-d]pyrimidin-4(3H)-one], the IC50 is less than 10 µM.
